Reference: patent US11912787B2, “Peptide for skin aging prevention and wrinkle reduction, and composition comprising same” (DERMAFIRM, INC., priority 2019, dated 2024)
Read-outs that look alike come from different tables or passages of the source. Residues, ends and D or L forms follow the SMILES beside them. *: point of attachment. Palmitoyl = CCCCCCCCCCCCCCCC(=O)*

Test system: Fibroblasts
Assay: MTT cytotoxicity assay
Type: cell-based
Protocol: In order to examine the cytotoxicity of the novel peptides (GHK-R4 (SEQ ID NO.: 3) and Pal-GHK-R4 (SEQ ID NO.: 4)) according to the Examples of the present invention, MTT assay was performed. As a control, GHK-acetate was used. Fibroblasts were treated with various concentrations of each of the control and the novel peptides, and after 24 hours, treated with MTT reagent. Next, the absorbance was measured, and the viability of the cells was calculated based on the absorbance.

Compound	IC30 (cell viability, MTT)	IC30 (cell viability, MTT) (fibroblasts, 24 hours treatment) [µM]
CCCCCCCCCCCCCCCC(=O)NCC(=O)N[C@@H](Cc1c[nH]cn1)C(=O)N[C@@H](CCCCN)C(=O)N[C@@H](CCCNC(=N)N)C(=O)N[C@@H](CCCNC(=N)N)C(=O)N[C@@H](CCCNC(=N)N)C(=O)N[C@@H](CCCNC(=N)N)C(=O)O [Pal-GHK-R4, Pal-GlyHisLys-ArgArgArgArg-OH] (Palmitoyl-GHKRRRR-OH)	~8.70 µM	–
NCCCC[C@H](NC(=O)[C@H](Cc1cnc[nH]1)NC(=O)CN)C(=O)O [GHK-acetate, glycine-histidyl-lysine tripeptide, reference compound] (H-Gly-His-Lys-OH)	about 31.71 mM	–
H-GHKRRRR-OH [GHK-R4, H-GlyHisLys-ArgArgArgArg-OH]	–	~5320
